The subject of the experiment is 354836-022-R-J1-PDC multicell spheroid viability. Briefly: Anticancer human tumor 354836-022-R-J1-PDC patient-derived head and neck squamous cell carcinoma cell line growth inhibition [PI3K]. To be noted: for viability, T/C: stronger effect = lower value. The source says: Combinatorial screen of targeted agents with the PI3K inhibitors inavolisib, alpelisib, duvelisib, and copanlisib in multi-cell type tumor spheroids
A high-throughput screen of multi-cell type tumor spheroids was designed to identify active combinations of targeted small molecules and PI3K pathway inhibitors. Complex spheroids include a stromal component modeled by human endothelial cells (HUVEC) and fibroblasts modeled by human mesenchymal stem cells (MSCs). The concentration ranges selected for each drug and investigational agent were based upon clinically achievable concentrations if the clinical Cmax of the agent was known.
Compounds. The drugs and investigational agents: inavolisib (NSC800729), alpelisib (NSC765974), duvelisib (NSC772469), copanlisib (NSC816437), ipatasertib (NSC767898), afuresertib (NSC778305), talazoparib (NSC767125), sapanisertib (NSC764658), selumetinib (NSC741078), tovorafenib (DAY101, NSC766906), vemurafenib (NSC761431), ravoxertinib (NSC781343), sotorasib (NSC818433), MRTX1133 (NSC 836407), abemaciclib (NSC 768073), palbociclib (NSC758247), venetoclax (NSC 766270), SY5609 (NSC837396), enzalutamide (NSC755605), and darolutamide (NSC825331), were obtained from the National Cancer Institute (NCI) Developmental Therapeutics Program Chemical Repository. The FDA-approved anticancer drug set is available from the NCI Developmental Therapeutics Program. […] The stock solutions were prepared in dimethyl sulfoxide (DMSO, Sigma-Aldrich, St. Louis, MO, cat. D2650) at 800-fold the tested concentration and stored at -70 degrees C prior to their use. All drugs and investigational agents were tested over a range starting from a high concentration at or near the clinical Cmax and decreasing in half-log increments. If the clinical Cmax for an agent had not been determined, the highest concentration tested was 10 microM.
Cell Culture. All cells were maintained in an incubator at 37 degrees C and 5% CO2 with 95% humidity. The PDC lines were cultured according to standard operating procedures established by the NCI PDMR (https://pdmr.cancer.gov/sops/default.htm). All PDCs were thawed and cultured in Matrigel-coated flasks prepared with a working solution of 1X Ham's F-12 nutrient mix, without supplementation (Invitrogen, Waltham, MA, cat. 11765054), 100 U/mL penicillin-streptomycin (Invitrogen, cat. 15140122), and 2.5% Matrigel (Corning Inc., Corning, NY, cat. 354248) for the first three passages. The 354836-022-R-J1-PDC, 475296-252-R-J1-PDC, and 997726-040-R-J2-PDC lines were cultured in 6A media, which includes advanced DMEM/F-12 (Thermo Fisher Scientific, cat. 12634028), 10 mM HEPES (Thermo Fisher Scientific, cat. 15630080), 1X GlutaMAX supplement (Thermo Fisher Scientific, cat. 35050061), 0.1 mg/mL primocin (InvivoGen, San Diego, CA, cat. ant-pm-2), 10% defined fetal bovine serum, heat inactivated (HyClone Laboratories Inc., Logan, UT, cat. SH30070.03HI), 50% L-WRN conditioned media (ATCC, cat. CRL-3276), 1.25 mM N-Acetyl-L-cysteine (Sigma-Aldrich, cat. A9165), 10 mM nicotinamide (Sigma-Aldrich, cat. N0636), 1X B-27 supplement (Thermo Fisher Scientific, cat. 17504044), 1X N-2 supplement (Thermo Fisher Scientific, cat. 17502048), and 10 microM Y-27632 dihydrochloride (Tocris Bioscience, Bristol, United Kingdom, cat. 1254). The 624824-186-R-J2-PDC line was cultured in 6C/Colon 1B media, which includes all 6A media components plus 50 ng/mL human EGF recombinant protein (Thermo Fisher Scientific, cat. PHG0311). […]

The mark [1] stands for this setting: compound alone, run of 06/12/2023.

pIC50: −log10 of the molar value. Where “and” joins values, the source holds several entries; their conditions need not be identical. Equal values may be shown once. Where only a bound is given, the exact number is not on record here.

This passage reports viability, T/C and IC50 results from PubChem BioAssay AID1963981 (Molecular Pharmacology Branch, DTP, NCI, 2024).

Broadly, the viability, T/C is the ratio of treated to control. One may read the pIC50 as −log10 of the IC50, conventionally taken in molar units. As a reminder, the IC50 is the concentration that gives 50% inhibition.
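Further: spheroids exposed to agents for seven days before the viability read.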

As for `CC(=O)c1c(C)c2cnc(Nc3ccc(N4CCNCC4)cn3)nc2n(C2CCCC2)c1=O`, the viability, T/C reads like this: (compound 0.000316 µM) 105% (2×) and 101% and 106%; (compound 0.001 µM) 104% [middle of 4 runs]; (compound 0.00316 µM) 105% [middle of 4 runs]; (compound 0.01 µM) 102% [middle of 4 runs]; (compound 0.0316 µM) 103% [middle of 4 runs]; (compound 0.1 µM) 104% [middle of 4 runs]. For the same compound, the negative-log IC50 (pIC50) (curve of compound) is less than 7.00.
As to `CC(C)n1nc(-c2ccc3oc(N)nc3c2)c2c(N)ncnc21`, the viability, T/C was 92.8% [middle of 4 runs] (compound 0.000316 µM); 84.9% [middle of 4 runs] (compound 0.001 µM); 78.9% [middle of 4 runs] (compound 0.00316 µM); 52% [middle of 4 runs] (compound 0.01 µM); 28.9% [middle of 4 runs] (compound 0.0316 µM); 11.4% [middle of 4 runs] (compound 0.1 µM). Further, the pIC50 (curve of compound) is 8.02 and 7.92 and 7.93.
For the compound `CC(Nc1ccc2c(c1)OCCn1cc(N3C(=O)OCC3C(F)F)nc1-2)C(N)=O` (centres undefined), the viability, T/C reads like this: (compound 0.00316 µM) 99.7% [middle of 8 runs]; (compound 0.01 µM) 96.8% [middle of 8 runs]; (compound 0.0316 µM) 99.1% [middle of 8 runs]; (compound 0.1 µM) 87.8% [middle of 7 runs]; (compound 0.316 µM) 76.5% [middle of 8 runs]; (compound 1 µM) 53.6% [middle of 8 runs]. Moreover, under setting [1], the pIC50 was less than 6.00.
`CCN1CCN(Cc2ccc(Nc3ncc(F)c(-c4cc(F)c5nc(C)n(C(C)C)c5c4)n3)nc2)CC1`: the viability, T/C (compound 0.00316 µM) was 111% [middle of 4 runs]; the viability, T/C (compound 0.01 µM) was 94.4% [middle of 4 runs]; the viability, T/C (compound 0.0316 µM) is 98.2% [middle of 4 runs]; the viability, T/C (compound 0.1 µM) was 90% and 99.5% and 87.3% (2×); the viability, T/C (compound 0.316 µM) was 94% [middle of 4 runs]. Also, the pIC50 (curve of compound) is < 6.00 and 6.08.
Take `COc1c(OCCCN2CCOCC2)ccc2c3n(c(=NC(=O)c4cnc(N)nc4)nc12)CCN3`: the viability, T/C was 106% [middle of 8 runs] (compound 0.00316 µM); 97.6% [middle of 8 runs] (compound 0.01 µM); 82.5% [middle of 8 runs] (compound 0.0316 µM); 50.2% [middle of 8 runs] (compound 0.1 µM); 11.2% [middle of 8 runs] (compound 0.316 µM); 1.63% [middle of 8 runs] (compound 1 µM). In addition, the IC50 (compound alone, run of 06/13/2023) was 91.2 nM [middle of 8 runs].
`Cc1nc(NC(=O)N2CCCC2C(N)=O)sc1-c1ccnc(C(C)(C)C(F)(F)F)c1` (centres undefined): the viability, T/C was 103% [middle of 8 runs] (compound 0.0316 µM); 100% [middle of 8 runs] (compound 0.1 µM); 78.3% [middle of 8 runs] (compound 1 µM); 59.7% [middle of 8 runs] (compound 3.16 µM); 30.9% [middle of 8 runs] (compound 10 µM). Also, the IC50 under setting [1] is 4.49 µM [middle of 8 runs].
For `Cn1cnc2c(F)c(Nc3ccc(Br)cc3Cl)c(C(=O)NOCCO)cc21`, the viability, T/C by setting is: (compound 0.00949 µM) 90% [middle of 4 runs]; (compound 0.03 µM) 85.5% [middle of 4 runs]; (compound 0.0949 µM) 91.4% [middle of 4 runs]; (compound 0.3 µM) 74.8% [middle of 4 runs]; (compound 0.949 µM) 80.2% [middle of 4 runs]; (compound 3 µM) 58.4% [middle of 4 runs]. In addition, the negative-log IC50 (pIC50) (curve of compound) was less than 5.52.
Turning to `Cn1ncnc1[C@H]1c2n[nH]c(=O)c3cc(F)cc(c23)N[C@@H]1c1ccc(F)cc1`, the viability, T/C reads like this: (compound 0.000316 µM) 101% [middle of 4 runs]; (compound 0.001 µM) 100% [middle of 4 runs]; (compound 0.00316 µM) 98.7% [middle of 4 runs]; (compound 0.01 µM) 92.5% [middle of 4 runs]; (compound 0.0316 µM) 96.4% [middle of 4 runs]; (compound 0.1 µM) 92.1% [middle of 4 runs]. In addition, the pIC50 (curve of compound) was less than 7.00.
